Like-named read-outs stand apart in the source and are kept apart here.
What was measured:
[1] = target: T1, Human Pregnane X Receptor (PXR) (Homo sapiens, UniProt O75469); assay: Human pregnane X receptor (PXR) test, induction of PXR-mediated CYP3A expression in DPX2 cells; type: in vitro ADME
T1 construct: host or cells: DPX2 cells
T1 sequence (O75469 1-434): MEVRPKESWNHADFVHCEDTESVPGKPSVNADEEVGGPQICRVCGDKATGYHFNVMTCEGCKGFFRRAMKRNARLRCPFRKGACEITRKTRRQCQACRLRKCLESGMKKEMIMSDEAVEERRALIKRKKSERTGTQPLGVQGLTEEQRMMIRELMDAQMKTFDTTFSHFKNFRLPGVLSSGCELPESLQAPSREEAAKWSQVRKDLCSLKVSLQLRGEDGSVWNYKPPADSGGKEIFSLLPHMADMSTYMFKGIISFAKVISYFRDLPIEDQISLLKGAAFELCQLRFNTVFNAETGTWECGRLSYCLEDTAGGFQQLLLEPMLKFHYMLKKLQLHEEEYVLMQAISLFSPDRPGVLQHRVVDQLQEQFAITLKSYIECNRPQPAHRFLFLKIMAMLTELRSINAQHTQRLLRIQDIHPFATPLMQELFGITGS
Method: To assess the induction of PXR-mediated CYP3A expression by the compounds.
Experimental Protocol: • 1. The DPX2 cells was thawed under aseptic conditions. • 2. The DPX2 cytosol was distributed in 96-well plates (100 μl/well) and placed the plates in a 5% CO2/37° C. incubator overnight. • 3. The quantitative feeding medium was thawed in a 37° C. water bath. The positive control rifampicin was thawed at room temperature. A series of the test compound and positive control dilutions were prepared in quantitative feeding medium. The medium was carefully aspirated and discarded from each well, without disturbing the cells during the aspiration process. […] Enzyme activity test: • (1) 7 μl of Luciferin-IPA was added to 7 ml of quantitative feeding medium, inverted to mix, and poured into the Luciferin-IPA reagent tank. • (2) The 96-well plate was taken out of the incubator and the medium was carefully aspirated from each well. […] The plate was placed back to the incubator for 60 minutes. • (7) 40 μl of Luciferin detection reagent/P450-Glo buffer was added to each well of the replicate plate, stirred and incubated for 20 minutes at room temperature. • (8) After incubation with Luciferin detection reagent for 20 minutes, a luminometer (set for 1-5 seconds. Read out time) was used to determine the luminescence of each well of the white 96-well plate. […] The fluorescence intensity of each well was measured. […]

CYP2C9 = target: T2, CYP2C9 (Homo sapiens, UniProt P11712); assay: Human liver microsomal cytochrome P450 isozyme inhibition; type: in vitro ADME; details: human liver microsomes
T2 construct: Mixed human liver microsomes (HLM) were purchased from Corning Inc; tissue Corning Inc; host or cells: pooled human liver microsomes
T2 sequence (P11712 whole entry): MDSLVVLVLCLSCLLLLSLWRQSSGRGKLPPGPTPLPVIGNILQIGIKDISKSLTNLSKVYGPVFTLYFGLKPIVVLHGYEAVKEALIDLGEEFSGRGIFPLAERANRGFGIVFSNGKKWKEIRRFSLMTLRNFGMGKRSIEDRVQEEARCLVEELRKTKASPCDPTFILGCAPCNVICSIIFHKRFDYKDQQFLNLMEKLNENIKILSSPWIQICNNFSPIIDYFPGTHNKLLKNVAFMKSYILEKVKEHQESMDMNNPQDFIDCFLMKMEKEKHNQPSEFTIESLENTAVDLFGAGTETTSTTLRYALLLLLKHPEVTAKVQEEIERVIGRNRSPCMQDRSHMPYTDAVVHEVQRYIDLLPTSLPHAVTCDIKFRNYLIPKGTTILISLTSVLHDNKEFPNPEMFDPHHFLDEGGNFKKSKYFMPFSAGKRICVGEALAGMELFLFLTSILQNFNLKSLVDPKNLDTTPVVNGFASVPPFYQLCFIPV
Method: The aim of the project was to evaluate the inhibitory activity of the test article against human liver microsomal cytochrome P450 isozymes (CYP1A2, CYP2C9, CYP2C19, CYP2D6 and CYP3A4) using a 5-in-1 probe substrate for CYP isozymes.
Mixed human liver microsomes (HLM) were purchased from Corning Inc. (Steuben, New York, USA) and stored at less than −80° C. prior to use. A diluted series of concentrations of the stock solution of the test article was added to an incubation system containing human liver microsomes, probe substrate and cofactors of the circulatory system. The control without the test article but with solvent was used as the enzyme activity control (100%). The concentration of metabolites generated by the probe substrate in the samples was determined by liquid chromatography-tandem mass spectrometry (LC-MS/MS). A non-linear regression analysis of the mean percentage activity of the test article against concentration was performed using SigmaPlot (V.11). The IC50 values were calculated using a three- or four-parameter inverse hyperbolic logarithmic function.

[2] = Pharmacokinetics accompanying the efficacy in the MCT-induced rat model of pulmonary hypertension; type: in vivo, SD rats; details: day 21, mean, n = 3; for MRT last: read-out: MRT0-last; for MRT inf: read-out: MRT0-inf
Method: Blood samples were taken before and after dosing on the day of the endpoint, at time points of 0, 0.25, 0.5, 1, 2, 4, 6 and 8 h. The rats were placed in a fixator, 250 μL of blood was collected from the tail vein, transferred to an EP tube with anticoagulant (5-8 μL of 15% EDTA), inverted and shaken, and immediately placed on wet ice for temporary storage. The collected blood samples were placed in centrifugal machines and centrifuged at 4° C., 3000 rpm for 15 min. The plasma was collected after centrifugation and immediately placed on dry ice. After all samples have been collected and transferred to cryopreservation at −80° C. for pharmacokinetic analysis.
Blood samples were collected before and after dosing on day 21 and collected at time points 0, 0.25, 0.5, 1, 2, 4, 6 and 8 h for analysis of plasma drug concentrations of the compound of formula (I) and Macitentan.

[3] = Sprague-Dawley, rat, plasma, po, 30 mg/kg gavage
[4] = Sprague-Dawley, rat, plasma, po, 1 mg/kg gavage
[5] = Sprague-Dawley, rat, plasma, po, 3 mg/kg gavage

Which “Induction of PXR-mediated CYP3A expression (in words)” value [1] does the source give for `CCCNS(=O)(=O)Nc1ncnc(OCCOc2ncc(Br)cn2)c1-c1ccc(Br)cc1` [Macitentan, reference compound] here?
Its value is “strong induction”.

And the “Inhibition on the isozyme CYP2C9 (in words)” value (CYP2C9)?
Its value is “moderate inhibition”.

And the Tlast ([2]; 30 mg/kg gavage)?
Its Tlast is 8.00 h.

What about the AUC(0-t) [2, 3] of the same compound?
Its AUC(0-t) is 11000 ng·h/mL.

And the Cmax [2, 3]?
The Cmax was 1840 nM.

And the Tmax [2, 3]?
Its Tmax is 4.08 h.

What about the MRT last [2, 3] of the same compound?
Its MRT last is 4.38 h.

Which “Induction of PXR-mediated CYP3A expression (in words)” value [1] does the source give for `COCCNS(=O)(=O)Nc1ncnc(OCCOc2ncc(Br)cn2)c1-c1ccc2c(c1)OCO2` [Compound of formula (I)] here?
Its value is “weak induction”.

And the AUC0-inf/AUC0-last ([2]; 1 mg/kg gavage)?
The AUC0-inf/AUC0-last was 111%.

And the Tlast ([2]; 1 mg/kg gavage)?
Its Tlast is 8.00 h.

What about the AUC0-inf/AUC0-last ([2]; 3 mg/kg gavage) of the same compound?
The AUC0-inf/AUC0-last was 132%.

What about the AUC(0-inf) ([2]; 3 mg/kg gavage) of the same compound?
Its AUC(0-inf) is 5540 ng·h/mL.

And the Tlast ([2]; 3 mg/kg gavage)?
Its Tlast is 8.00 h.

And the AUC(0-inf) ([2]; Sprague-Dawley, rat, plasma, po, 1 mg/kg, 1 mg/kg gavage, read-out: AUC0-inf)?
Its AUC(0-inf) is 1410 ng·h/mL.

What about the AUC(0-inf) ([2]; Sprague-Dawley, rat, plasma, po, 3 mg/kg, 3 mg/kg gavage, read-out: AUC0-inf) of the same compound?
Its AUC(0-inf) is 5230 ng·h/mL.

And the AUC(0-t) [2, 4]?
Its AUC(0-t) is 1270 ng·h/mL.

And the Cmax [2, 4]?
The Cmax was 345 nM.

And the Tmax [2, 4]?
Its Tmax is 1 h.

What about the half-life [2, 4] of the same compound?
The half-life was 2.3 h.

What about the MRT inf [2, 4] of the same compound?
The MRT inf was 3.64 h.

And the MRT last [2, 4]?
The MRT last was 2.83 h.

And the AUC(0-t) [2, 5]?
Its AUC(0-t) is 4220 ng·h/mL.

And the Cmax [2, 5]?
The Cmax was 1120 nM.

And the Tmax [2, 5]?
Its Tmax is 1 h.

What about the half-life [2, 5] of the same compound?
The half-life was 3.64 h.

What about the MRT inf [2, 5] of the same compound?
The MRT inf was 5.52 h.

What about the MRT last [2, 5] of the same compound?
The MRT last was 3.04 h.
